Results published in US12617762B2, “Carboxy derivatives with antiinflamatory properties” (Sitryx Therapeutics Limited, priority 2019, dated 2026).
Where two headings read alike, the source gives them in different places.

Columns and labels:
[1] = test system: IL-1β cytokine output from THP-1s; test: THP-1 AlphaLISA IL-1β cytokine inhibition assay; format: cell-based; details: Homo sapiens, THP-1, differentiated THP-1 cells, LPS then nigericin
Method in brief: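 IL-1β release by AlphaLISA, expressed as % inhibition against +/− LPS controls on each plate. Differentiation: PMA, 72 h. Sequence: 30 min compound pre-treatment, LPS 24 h, Nigericin 1 h before supernatant harvest, all at 37° C./5% CO2.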

[2] = test system: IL-6 cytokine output from THP-1s; test: THP-1 AlphaLISA IL-6 cytokine inhibition assay; format: cell-based; details: Homo sapiens, LPS then nigericin
Method in brief: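 THP-1 cells differentiated with PMA for 72 h, then pre-incubated with compound 30 min, stimulated with LPS 24 h, then Nigericin 1 h, all at 37° C. Supernatant IL-6 measured by AlphaLISA. Percentage inhibition normalized to +/− LPS plate controls.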

[3] = Hepatocyte stability assay, mouse; format: in vitro ADME; details: mouse, hepatocytes; for hepatocyte CLint at 10 μM: Hepatocyte stability Clint; for half-life at 10 μM: Hepatocyte stability T½
Method in brief: (§1)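 Metabolic stability was measured as depletion of 10 μM compound in thawed hepatocytes (0.5×10^6 cells/mL, 37° C, up to 60 min). Intrinsic clearance came from the slope of log-transformed percentage remaining.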

[4] = test system: NRF2 (nuclear factor erythroid 2-related factor 2); test: NRF2 +/-GSH activation assay (DiscoverX PathHunter NRF2 translocation kit, U2OS cells); format: cell-based; details: for NRF2 activation +GSH Emax / NRF2 activation −GSH Emax: normalised to DMF high control
Method in brief: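 Activation is expressed as percent of plate DMF (high) versus no-DMF (low) controls, from luminescence after 6 h compound exposure at 37 °C of U2OS PathHunter cells. The +GSH condition used compound pre-incubated 30 min in 6 mM working GSH; −GSH cells received compound directly.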

[5] = Hepatocyte stability assay, human; format: in vitro ADME; details: human, hepatocytes; for hepatocyte CLint at 10 μM: Hepatocyte stability Clint; for half-life at 10 μM: Hepatocyte stability T½
Method in brief: as §1

[6] = THP-1, differentiated THP-1 cells
[7] = +GSH, 30 minute compound-GSH pre-incubation, read-out: NRF2 activation +GSH EC50
[8] = −GSH, U2OS PathHunter cells, 6 hours compound treatment, read-out: NRF2 activation −GSH EC50

IC50 ([2]; differentiated THP-1 cells)	SMILES	IC50 [1]	IC50 [2, 6]	hepatocyte CLint at 10 μM [3]	half-life at 10 μM [3]	EC50 [4, 7]	NRF2 activation +GSH Emax ([4]; +GSH)	EC50 [4, 8]	NRF2 activation −GSH Emax ([4]; −GSH)	hepatocyte CLint at 10 μM [5]	half-life at 10 μM [5]
	C=C(Cc1nc(Cc2ccc(CCC)cc2)no1)C(=O)O [Example 70, 2-((3-(4-propylbenzyl)-1,2,4-oxadiazol-5-yl)methyl)acrylic acid]	25.3 µM	9.4 µM	58 µL/min/1e6 cells	26 min	15.6 µM	147%	13.4 µM	188%	13 µL/min/1e6 cells	117 min
	C=C(Cc1noc(CCCCCCCC)n1)C(=O)O [Example 3, 2-((5-octyl-1,2,4-oxadiazol-3-yl)methyl)acrylic acid]	14.6 µM	4.4 µM	117 µL/min/1e6 cells	12 min	6.9 µM	199%	3.7 µM	218%	110 µL/min/1e6 cells	15 min
	C=C(Cc1nc(C2(c3ccc(Cl)c(F)c3)CC2)no1)C(=O)O [Example 52, 2-((3-(1-(4-chloro-3-fluorophenyl)cyclopropyl)-1,2,4-oxadiazol-5-yl)methyl)acrylic acid]	19.4 µM	25.5 µM	134 µL/min/1e6 cells	10 min	> 100 µM	40%	15.2 µM	78%	24 µL/min/1e6 cells	55 min
2 µM	C=C(Cc1ccc(CCCCCCCC)cn1)C(=O)O [Example 105]	4.2 µM		> 460 µL/min/1e6 cells	< 3 min	5.3 µM	166%	5.3 µM	257%	> 460 µL/min/1e6 cells	< 3 min
	C=C(Cc1nc(Cc2ccc(CCCC)cc2)no1)C(=O)O [Example 20, 2-((3-(4-butylbenzyl)-1,2,4-oxadiazol-5-yl)methyl)acrylic acid]	14.7 µM	2.7 µM	427 µL/min/1e6 cells	4 min	3 µM	146%	2.9 µM	206%	70 µL/min/1e6 cells	24 min
	C=C(Cc1nc(C(F)(F)c2ccc(Br)cc2)no1)C(=O)O [Example 90, 2-((3-((4-bromophenyl)difluoromethyl)-1,2,4-oxadiazol-5-yl)methyl)acrylic acid]	3.4 µM	15.7 µM	34 µL/min/1e6 cells	56 min	44 µM	130%	45.3 µM	172%	7 µL/min/1e6 cells	206 min
	C=C(Cc1nc(Cc2ccc(-c3ccc(Cl)cc3)cc2)no1)C(=O)O [Example 19, 2-((3-((4′-chloro-[1,1′-biphenyl]-4-yl)methyl)-1,2,4-oxadiazol-5-yl)methyl)acrylic acid]	77 µM	3.3 µM	> 460 µL/min/1e6 cells	< 3 min	7.4 µM	140%	2.5 µM	206%	63 µL/min/1e6 cells	20 min
	C=C(Cc1nc(Cc2ccc(OCCCC)cc2)no1)C(=O)O [Example 51, 2-((3-(4-butoxybenzyl)-1,2,4-oxadiazol-5-yl)methyl)acrylic acid]	53.4 µM	5.3 µM	278 µL/min/1e6 cells	5 min	6.7 µM	181%	4.6 µM	269%	24 µL/min/1e6 cells	55 min
